Results taken from publication PMC10052977, “α,ω-Diacyl-Substituted Analogues of Natural and Unnatural Polyamines: Identification of Potent Bactericides That Selectively Target Bacterial Membranes” (International Journal of Molecular Sciences, 2023).
Values after ≈ are worked out from the molar mass of the structure shown. Like-named read-outs stand apart in the source and are kept apart here.

Legend:
MRSA ATCC 43300 = assay: MIC, CO-ADD broth microdilution; assay type: cell-based, Staphylococcus aureus; conditions: Staphylococcus aureus, read-out: MIC MRSA
[1] = test system: Pseudomonas aeruginosa PAO1 or ATCC 27853; assay: MIC, broth dilution (CA-SFM); assay type: cell-based; conditions: mean (n = 3)
[2] = Cytotoxicity assay (resazurin); assay type: cell-based, human; conditions: human; HEK293 cells; mean (n = 2); highest dose tested 32 μg/mL; read-out: Cytotoxicity (concentration of compound at 50% cytotoxicity, IC50)
[3] = test system: Staphylococcus aureus ATCC 25923 or ATCC 29213; assay: MIC, broth dilution (CA-SFM); assay type: cell-based; conditions: Staphylococcus aureus ATCC 25923 or ATCC 29213; mean (n = 3); read-out: MIC S. a
[4] = test system: Acinetobacter baumannii ATCC19606; assay: MIC, CO-ADD broth microdilution; assay type: cell-based; conditions: mean (n = 2)
[5] = test system: Cryptococcus neoformans ATCC208821; assay: Antifungal MIC, CO-ADD; assay type: cell-based; conditions: ATCC208821, Cryptococcus neoformans ATCC208821, mean (n = 2)
Description: (§1) For the antifungal assay, fungi strains were cultured for 3 days on YPD agar at 30 °C. A yeast suspension of 1 × 10^6 to 5 × 10^6 CFU/mL was prepared from five colonies. These stock suspensions were diluted with yeast nitrogen base (YNB) (Becton Dickinson, 233520) broth to a final concentration of 2.5 × 10^3 CFU/mL. […] Plates were covered and incubated at 35 °C for 36 h without shaking. C. albicans MICs were determined by measuring the absorbance at OD530. […] Fluconazole was used as a positive fungal inhibitor standard for C. albicans and C. neoformans. […] Quality control (QC) of the assays was determined by antimicrobial controls and Z’-factor (using positive and negative controls).

[6] = test system: Candida albicans ATCC90028; assay: Antifungal MIC, CO-ADD; assay type: cell-based; conditions: mean (n = 2)
Description: as §1

[7] = test system: Escherichia coli ATCC 25922; assay: MIC, CO-ADD broth microdilution; assay type: cell-based; conditions: ATCC25922, mean (n = 2)
human red blood cells = assay: Hemolytic assay; assay type: cell-based; conditions: mean (n = 2)
Description: Human whole blood was washed three times with 3 volumes of 0.9% NaCl and then resuspended in same to a concentration of 0.5 × 10^8 cells/mL, as determined by manual cell count in a Neubauer hemocytometer. The washed cells were then added to the 384-well compound-containing plates for a final volume of 50 μL. After a 10 min shake on a plate shaker, the plates were then incubated for 1 h at 37 °C. After incubation, the plates were centrifuged at 1000× g for 10 min to pellet cells and debris; 25 μL of the supernatant was then transferred to a polystyrene 384-well assay plate. Hemolysis was determined by measuring the supernatant absorbance at […] (OD405). The absorbance was measured using a Tecan M1000 Pro monochromator plate reader. HC10 and HC50 (concentration at 10% and 50% hemolysis, respectively) were calculated by curve fitting the inhibition values vs. log (concentration) using a sigmoidal dose–response function with variable fitting values for top, bottom and slope.

[8] = test system: Klebsiella pneumoniae ATCC700603; assay: MIC, CO-ADD broth microdilution; assay type: cell-based; conditions: mean (n = 2)

Row | SMILES | MIC (MRSA ATCC 43300; MRSA ATCC 43300, mean (n = 2)) [µM] | MIC [1] [µM] | IC50 at 20 h [2] [µM] | MIC [3] [µM] | MIC [4] [µM] | MIC [5] [µM] | MIC [6] [µM] | MIC [7] [µM] | Hemolysis (HC10, concentration at 10% hemolytic activity) (human red blood cells) [µM] | MIC [8] [µM] | MIC (MRSA ATCC 43300) [µM]
1 | Cl.Cl.S=C(NCCCNCCCCCCNCCCNC(=S)NC(c1ccccc1)c1ccccc1)NC(c1ccccc1)c1ccccc1 [Compound 6b, N^1,N^6-Bis(3-(3-benzhydrylthioureido)propyl)hexane-1,6-diaminium chloride] | ≤ 0.33 | 265 | > 42.4 | > 265 | 10.7 | > 42.4 | ≤ 0.33 | ≤ 0.33 | 2.96 | > 42.4 | 
2 | O=C(CCc1ccccc1)NCCCNCCCCNCCCNC(=O)CCc1ccccc1 [Compound 13a, N^1,N^4-Bis(3-(3-phenylpropanamido)propyl)butane-1,4-diaminium 2,2,2-trifluoroacetate] | > 46.1 | 720 (≈ 336 µg/mL) |  | 720 (≈ 336 µg/mL) | > 46.1 | > 46.1 | > 46.1 | > 46.1 |  | > 46.1 | 
3 | O=C(CCc1ccccc1)NCCCNCCCCCCNCCCNC(=O)CCc1ccccc1.O=C(O)C(F)(F)F.O=C(O)C(F)(F)F [Compound 13b, N^1,N^6-Bis(3-(3-phenylpropanamido)propyl)hexane-1,6-diaminium 2,2,2-trifluoroacetate] | > 44.3 | > 277 | > 44.3 | > 277 | > 44.3 | > 44.3 | > 44.3 | > 44.3 | >44.3 | > 44.3 | 
4 | O=C(CCC(=O)NCCCc1ccccc1)NCCCNCCCCCCNCCCNC(=O)CCC(=O)NCCCc1ccccc1 [Compound 14b, N^1,N^6-Bis(3-(4-oxo-4-((3-phenylpropyl)amino)butanamido)propyl)hexane-1,6-diaminium 2,2,2-trifluoroacetate] | > 35.8 | > 200 |  | > 200 | > 35.8 | > 35.8 | > 35.8 | > 35.8 |  | > 35.8 | 
5 | O=C(CCC(=O)NCCCc1ccccc1)NCCCNCCCCCCCNCCCNC(=O)CCC(=O)NCCCc1ccccc1 [Compound 14c, N^1,N^7-Bis(3-(4-oxo-4-((3-phenylpropyl)amino)butanamido)propyl)heptane-1,7-diaminium 2,2,2-trifluoroacetate] | > 35.3 | > 200 |  | 200 (≈ 136 µg/mL) | > 35.3 | > 35.3 | > 35.3 | > 35.3 |  | > 35.3 | 
6 | CC/C(=C(\c1ccccc1)c1ccc(OCCN(C)C)cc1)c1ccccc1 [Tamoxifen, reference compound] |  |  | 24 |  |  |  |  |  |  |  | 
7 | O=C(N[C@H](CO)[C@H](O)c1ccc([N+](=O)[O-])cc1)C(Cl)Cl [chloramphenicol, reference compound] |  |  |  | 1.5 to 3 (≈ 0.485 to 0.969 µg/mL) |  |  |  |  |  |  | 
8 | C[C@H]1c2cccc(O)c2C(=O)C2=C(O)[C@]3(O)C(=O)C(C(N)=O)=C(O)[C@@H](N(C)C)[C@@H]3[C@@H](O)[C@@H]21 [doxycycline, reference compound] |  | 90 (≈ 40 µg/mL) |  |  |  |  |  |  |  |  | 
9 | OC(Cn1cncn1)(Cn1cncn1)c1ccc(F)cc1F [fluconazole, reference compound] |  |  |  |  |  | 26 (≈ 7.96 µg/mL) | 0.4 (≈ 0.123 µg/mL) |  |  |  | 
10 | [H]/N=C(/N)N[C@H]1[C@H](O)[C@@H](O)[C@H](O[C@@H]2O[C@@H](C)[C@](O)(C=O)[C@H]2O[C@@H]2O[C@@H](CO)[C@H](O)[C@@H](O)[C@@H]2NC)[C@@H](N/C(N)=N\[H])[C@@H]1O [streptomycin, reference compound] |  | 21.5 (≈ 12.5 µg/mL) |  | 21.5 (≈ 12.5 µg/mL) |  |  |  |  |  |  | 
11 | CN[C@H](CC(C)C)C(=O)N[C@H]1C(=O)N[C@@H](CC(N)=O)C(=O)N[C@H]2C(=O)N[C@H]3C(=O)N[C@H](C(=O)N[C@H](C(=O)O)c4cc(O)cc(O)c4-c4cc3ccc4O)[C@H](O)c3ccc(c(Cl)c3)Oc3cc2cc(c3O[C@@H]2O[C@H](CO)[C@@H](O)[C@H](O)[C@H]2O[C@H]2C[C@](C)(N)[C@H](O)[C@H](C)O2)Oc2ccc(cc2Cl)[C@H]1O [vancomycin, reference compound] |  |  |  |  |  |  |  |  |  |  | 0.7 (≈ 1.01 µg/mL)
